Assay results published in PubChem BioAssay (NCI).
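How tested: cells in 96-well plates exposed to compound for 48 hours at five concentrations. Abbreviation: GI50, concentration required for 50% inhibition of growth. The concentration for full growth arrest is given as TGI.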

How the values were obtained:
Experiment in all cases: NCI-60 cell line screen, 48 h
EKVX NSCLC = test system: EKVX NSCLC
RPMI-8226 leukemia = test system: RPMI-8226 leukemia
MOLT-4 leukemia = test system: MOLT-4 leukemia
SK-OV-3 ovarian = test system: SK-OV-3 ovarian
OVCAR-3 ovarian = test system: OVCAR-3 ovarian
SW-620 colon = test system: SW-620 colon
KM12 colon = test system: KM12 colon
CCRF-CEM leukemia = test system: CCRF-CEM leukemia
HCT-15 colon = test system: HCT-15 colon
NCI-H23 lung = test system: NCI-H23 lung
HL-60(TB) leukemia = test system: HL-60(TB) leukemia
CAKI-1 renal = test system: CAKI-1 renal
MALME-3M melanoma = test system: MALME-3M melanoma
HCC-2998 colon = test system: HCC-2998 colon
TK-10 renal = test system: TK-10 renal
SF-295 CNS = test system: SF-295 CNS
786-0 renal = test system: 786-0 renal
DU-145 prostate = test system: DU-145 prostate
UO-31 renal = test system: UO-31 renal
IGROV1 ovarian = test system: IGROV1 ovarian
SNB-19 CNS = test system: SNB-19 CNS
HS 578T breast = test system: HS 578T breast
SK-MEL-5 melanoma = test system: SK-MEL-5 melanoma
COLO 205 colon = test system: COLO 205 colon
SK-MEL-2 melanoma = test system: SK-MEL-2 melanoma
SR leukemia = test system: SR leukemia
UACC-257 melanoma = test system: UACC-257 melanoma
NCI-H226 lung = test system: NCI-H226 lung
M14 melanoma = test system: M14 melanoma
LOX IMVI melanoma = test system: LOX IMVI melanoma
NCI/ADR-RES ovarian = test system: NCI/ADR-RES ovarian
U251 CNS = test system: U251 CNS
MDA-MB-435 = test system: MDA-MB-435
HOP-92 NSCLC = test system: HOP-92 NSCLC
HT29 colon = test system: HT29 colon
UACC-62 melanoma = test system: UACC-62 melanoma
BT-549 breast = test system: BT-549 breast
HCT-116 colon = test system: HCT-116 colon
T-47D breast = test system: T-47D breast
MDA-MB-231 breast = test system: MDA-MB-231 breast
MDA-MB-468 breast = test system: MDA-MB-468 breast
NCI-H460 lung = test system: NCI-H460 lung
HOP-62 NSCLC = test system: HOP-62 NSCLC
K-562 leukemia = test system: K-562 leukemia
ACHN renal = test system: ACHN renal
SN12C renal = test system: SN12C renal
OVCAR-8 ovarian = test system: OVCAR-8 ovarian
A549 NSCLC = test system: A549 NSCLC
PC-3 prostate = test system: PC-3 prostate
SF-268 CNS = test system: SF-268 CNS
NCI-H522 lung = test system: NCI-H522 lung
MCF7 breast = test system: MCF7 breast
SNB-75 CNS = test system: SNB-75 CNS
RXF 393 renal = test system: RXF 393 renal
SK-MEL-28 melanoma = test system: SK-MEL-28 melanoma
OVCAR-5 ovarian = test system: OVCAR-5 ovarian
SF-539 CNS = test system: SF-539 CNS
OVCAR-4 ovarian = test system: OVCAR-4 ovarian
A498 renal = test system: A498 renal

**Q.** Which results are given for `O=C(CSc1nnc(-c2ccc3nc(-c4ccc(Cl)cc4)[nH]c3c2)o1)Nc1ccc(Br)cc1`?
**A.** GI50 (EKVX NSCLC): 9.52 µM; TGI (EKVX NSCLC): 21.6 µM; GI50 (RPMI-8226 leukemia): 8.26 µM; TGI (RPMI-8226 leukemia): 86.3 µM; GI50 (MOLT-4 leukemia): 3.19 µM; TGI (MOLT-4 leukemia): 15.4 µM; GI50 (SK-OV-3 ovarian): 16.5 µM; TGI (SK-OV-3 ovarian): 31.7 µM; GI50 (OVCAR-3 ovarian): 11.3 µM; TGI (OVCAR-3 ovarian): 28.2 µM; GI50 (SW-620 colon): 4.99 µM; TGI (SW-620 colon): 18.5 µM; GI50 (KM12 colon): 10.4 µM; TGI (KM12 colon): 41.5 µM; GI50 (CCRF-CEM leukemia): 3.33 µM; TGI (CCRF-CEM leukemia): 20.4 µM; GI50 (HCT-15 colon): 4.18 µM; TGI (HCT-15 colon): 16.3 µM; GI50 (NCI-H23 lung): 2.4 µM; TGI (NCI-H23 lung): 6.17 µM; GI50 (HL-60(TB) leukemia): 2.91 µM; TGI (HL-60(TB) leukemia): 15.6 µM; GI50 (CAKI-1 renal): 3.74 µM; TGI (CAKI-1 renal): 14.9 µM; GI50 (MALME-3M melanoma): 3.83 µM; TGI (MALME-3M melanoma): 15.4 µM; GI50 (HCC-2998 colon): 8.56 µM; TGI (HCC-2998 colon): 20.9 µM; GI50 (TK-10 renal): 20.2 µM; TGI (TK-10 renal): 36.8 µM; GI50 (SF-295 CNS): 6.17 µM; TGI (SF-295 CNS): 19.2 µM; GI50 (786-0 renal): 2.13 µM; TGI (786-0 renal): 4.76 µM; GI50 (DU-145 prostate): 5.83 µM; TGI (DU-145 prostate): 19.1 µM; GI50 (UO-31 renal): 11.8 µM; TGI (UO-31 renal): 24 µM; GI50 (IGROV1 ovarian): 10.6 µM; TGI (IGROV1 ovarian): 23 µM; GI50 (SNB-19 CNS): 4.2 µM; TGI (SNB-19 CNS): 14.6 µM; GI50 (HS 578T breast): 4.09 µM; TGI (HS 578T breast): 24.7 µM; GI50 (SK-MEL-5 melanoma): 3.69 µM; TGI (SK-MEL-5 melanoma): 13.6 µM; GI50 (COLO 205 colon): 12.8 µM; TGI (COLO 205 colon): 27.5 µM; GI50 (SK-MEL-2 melanoma): 4.74 µM; TGI (SK-MEL-2 melanoma): 18.4 µM; GI50 (SR leukemia): 9.89 µM; TGI (SR leukemia): > 100 µM; GI50 (UACC-257 melanoma): 5.65 µM; TGI (UACC-257 melanoma): 20.5 µM; GI50 (NCI-H226 lung): 3.45 µM; TGI (NCI-H226 lung): 16 µM; GI50 (M14 melanoma): 2.56 µM; TGI (M14 melanoma): 6.09 µM; GI50 (LOX IMVI melanoma): 1.63 µM; TGI (LOX IMVI melanoma): 2.98 µM; GI50 (NCI/ADR-RES ovarian): 4.31 µM; TGI (NCI/ADR-RES ovarian): 15.7 µM; GI50 (U251 CNS): 2.69 µM; TGI (U251 CNS): 6.66 µM; GI50 (MDA-MB-435): 2.9 µM; TGI (MDA-MB-435): 9.3 µM; GI50 (HOP-92 NSCLC): 3.55 µM; TGI (HOP-92 NSCLC): 15.7 µM; GI50 (HT29 colon): 5.66 µM; TGI (HT29 colon): 27.3 µM; GI50 (UACC-62 melanoma): 4.63 µM; TGI (UACC-62 melanoma): 16.8 µM; GI50 (BT-549 breast): 2.66 µM; TGI (BT-549 breast): 6.12 µM; GI50 (HCT-116 colon): 2.78 µM; TGI (HCT-116 colon): 7.81 µM; GI50 (T-47D breast): 18.3 µM; TGI (T-47D breast): 65.8 µM; GI50 (MDA-MB-231 breast): 2.37 µM; TGI (MDA-MB-231 breast): 6.07 µM; GI50 (MDA-MB-468 breast): 5.31 µM; TGI (MDA-MB-468 breast): 17.6 µM; GI50 (NCI-H460 lung): 2.39 µM; TGI (NCI-H460 lung): 5.78 µM; GI50 (HOP-62 NSCLC): 5.96 µM; TGI (HOP-62 NSCLC): 20.2 µM; GI50 (K-562 leukemia): 3.2 µM; TGI (K-562 leukemia): 15.1 µM; GI50 (ACHN renal): 3.47 µM; TGI (ACHN renal): 12.5 µM; GI50 (SN12C renal): 2.91 µM; TGI (SN12C renal): 11.2 µM; GI50 (OVCAR-8 ovarian): 3.9 µM; TGI (OVCAR-8 ovarian): 19.4 µM; GI50 (A549 NSCLC): 3.89 µM; TGI (A549 NSCLC): 19.8 µM; GI50 (PC-3 prostate): 3.28 µM; TGI (PC-3 prostate): 16.6 µM; GI50 (SF-268 CNS): 5.66 µM; TGI (SF-268 CNS): 22.3 µM; GI50 (NCI-H522 lung): 4.73 µM; TGI (NCI-H522 lung): 19.8 µM; GI50 (MCF7 breast): 3.86 µM; TGI (MCF7 breast): 17.7 µM; GI50 (SNB-75 CNS): 2.36 µM; TGI (SNB-75 CNS): 14.1 µM; GI50 (RXF 393 renal): 2.6 µM; TGI (RXF 393 renal): 8.42 µM; GI50 (SK-MEL-28 melanoma): 5.04 µM; TGI (SK-MEL-28 melanoma): 17.5 µM; GI50 (OVCAR-5 ovarian): 14.2 µM; TGI (OVCAR-5 ovarian): 29.5 µM; GI50 (SF-539 CNS): 2.86 µM; TGI (SF-539 CNS): 9.19 µM; GI50 (OVCAR-4 ovarian): 6.65 µM; TGI (OVCAR-4 ovarian): 26.7 µM; GI50 (A498 renal): 18.8 µM; TGI (A498 renal): 34.8 µM
